# Laboratory results published in publication PMC7345905, “Microbial Metabolite Urolithin B Inhibits Recombinant Human Monoamine Oxidase A Enzyme” (Metabolites, 2020).
# Where “and” joins values, the source holds several entries; their conditions need not be identical. Identical values can stand only once.
# Experiments:
# human recombinant MAO-B = biological target: T1, human recombinant MAO-B (Homo sapiens, UniProt P27338); assay: MAO-Glo MAO-B inhibition assay; format: biochemical; settings: N=1-3
# T1 construct: purchased Sigma-Aldrich
# T1 sequence (P27338 1-520): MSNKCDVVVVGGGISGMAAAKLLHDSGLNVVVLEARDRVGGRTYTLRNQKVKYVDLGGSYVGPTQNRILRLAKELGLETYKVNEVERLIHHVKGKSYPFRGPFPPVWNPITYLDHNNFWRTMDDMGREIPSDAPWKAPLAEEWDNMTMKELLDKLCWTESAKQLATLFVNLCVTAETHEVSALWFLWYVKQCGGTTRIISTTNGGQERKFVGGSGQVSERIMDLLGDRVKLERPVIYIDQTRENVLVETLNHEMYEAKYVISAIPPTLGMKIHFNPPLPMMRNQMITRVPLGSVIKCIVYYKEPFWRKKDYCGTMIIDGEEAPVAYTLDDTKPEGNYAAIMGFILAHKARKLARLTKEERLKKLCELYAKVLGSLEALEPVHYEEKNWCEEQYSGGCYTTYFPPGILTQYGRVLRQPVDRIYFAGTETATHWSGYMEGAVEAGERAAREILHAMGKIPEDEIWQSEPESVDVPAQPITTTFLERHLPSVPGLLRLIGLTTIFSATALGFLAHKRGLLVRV
# Method: MAO inhibition assays were performed using a MAO-Glo™ Assay kit (Promega) according to the manufacturer’s instructions. Briefly, 1 µg of human recombinant MAO-A and MAO-B enzyme isoforms were incubated with 160 and 16 µM of MAO substrates, respectively. […] The enzyme reaction was quenched by the addition of a luciferin detection reagent. […] An equal volume of dimethyl sulfoxide (0.1%) was added to the enzyme assay as a control. After 1 h of incubation, the luminescence was measured with a multimode microplate reader (Synergy HT, BioTek, Winooski, VT, USA) to determine the MAO enzyme activities. Initially, the inhibition potential of all the test compounds was evaluated at a concentration of 100 μM. The control reaction (with no inhibitor) with vehicle (DMSO 0.1%) was set at 100% activity. To determine IC50 of the test compounds, the dose dependent enzyme assays were performed. We used range of 0.1 to 50 μM concentrations for MAO-A and 0.1 to 200 μM concentrations of test compounds for the MAO-B enzyme activities. The type of enzyme inhibition was determined using variable concentrations of MAO-A substrate (10–360 µM) and MAO-B substrate (2–64 µM) for the respective enzyme assay. […] A Lineweaver–Burk double reciprocal plot was generated, and the mode of inhibition was determined by visual examination of the plot. The slope of the reciprocal plots was plotted against the inhibitor concentrations and determined the x-axis intercept that represented the inhibitor constant, Ki value.
# [1] = set-up: method as in PMID 31892167; settings: rats administered pomegranate juice; cited from earlier work
smiles,measurement,setting,value
"O=c1oc2cc(O)ccc2c2ccc(O)cc12 [UA, urolithin-A]","MAO-B enzyme assay, Percent of control","human recombinant MAO-B; 0.1 µM, listed as UroA",100.912% of control and 101.373% of control and 99.9795% of control
same,"MAO-B enzyme assay, Percent of control","human recombinant MAO-B; 1 µM, listed as UroA",93.9146% of control and 96.8343% of control and 95.7816% of control
same,"MAO-B enzyme assay, Percent of control","human recombinant MAO-B; 10 µM, listed as UroA",91.0665% of control and 92.3573% of control and 93.7097% of control
same,"MAO-B enzyme assay, Percent of control","human recombinant MAO-B; 25 µM, listed as UroA",94.1092% of control and 90.4928% of control
same,"MAO-B enzyme assay, Percent of control","human recombinant MAO-B; 50 µM, listed as UroA",81.2724% of control and 83.4341% of control and 89.5093% of control
same,"MAO-B enzyme assay, Percent of control","human recombinant MAO-B; 100 µM (Figure 1C), listed as UroA, 100 µM",76.7559% of control and 78.826% of control and 78.8568% of control
same,"MAO-B enzyme assay, Percent of control","human recombinant MAO-B; 100 µM, listed as UroA",71.1402% of control and 80.3709% of control and 83.4443% of control
same,"MAO-B enzyme assay, Percent of control","human recombinant MAO-B; 200 µM, listed as UroA",40.5081% of control and 42.2805% of control and 48.6733% of control
same,detection in the brain,[1],detected in the brains
"O=c1oc2cc(O)ccc2c2ccccc12 [UB, urolithin-B]","MAO-B enzyme assay, Percent of control","human recombinant MAO-B; 0.1 µM, listed as UroB",107.968% of control and 101.629% of control and 95.3271% of control
same,"MAO-B enzyme assay, Percent of control","human recombinant MAO-B; 1 µM, listed as UroB",109.561% of control and 99.5806% of control and 93.6856% of control
same,"MAO-B enzyme assay, Percent of control","human recombinant MAO-B; 10 µM, listed as UroB",97.6995% of control and 92.8109% of control and 92.0441% of control
same,"MAO-B enzyme assay, Percent of control","human recombinant MAO-B; 25 µM, listed as UroB",95.5787% of control and 94.7999% of control and 85.3343% of control
same,"MAO-B enzyme assay, Percent of control","human recombinant MAO-B; 50 µM, listed as UroB",93.9851% of control and 85.8855% of control and 84.5675% of control
same,"MAO-B enzyme assay, Percent of control","human recombinant MAO-B; 100 µM (Figure 1C), listed as UroB, 100 µM",92.2554% of control and 86.0762% of control and 81.4109% of control
same,"MAO-B enzyme assay, Percent of control","human recombinant MAO-B; 100 µM, listed as UroB",74.6465% of control and 81.8955% of control and 81.8476% of control
same,"MAO-B enzyme assay, Percent of control","human recombinant MAO-B; 200 µM, listed as UroB",35.5859% of control and 42.116% of control and 26.5397% of control
"O=c1oc2cc(O)ccc2c2cc(O)c(O)cc12 [UC, urolithin-C]","MAO-B enzyme assay, Percent of control","human recombinant MAO-B; 0.1 µM, listed as UroC",110.306% of control and 101.117% of control and 109.128% of control
same,"MAO-B enzyme assay, Percent of control","human recombinant MAO-B; 1 µM, listed as UroC",102.407% of control and 98.5247% of control and 98.1149% of control
same,"MAO-B enzyme assay, Percent of control","human recombinant MAO-B; 10 µM, listed as UroC",102.182% of control and 94.8161% of control and 92.9925% of control
same,"MAO-B enzyme assay, Percent of control","human recombinant MAO-B; 25 µM, listed as UroC",89.5195% of control and 89.6937% of control and 94.0068% of control
same,"MAO-B enzyme assay, Percent of control","human recombinant MAO-B; 50 µM, listed as UroC",87.5627% of control and 83.096% of control and 84.7864% of control
same,"MAO-B enzyme assay, Percent of control","human recombinant MAO-B; 100 µM (Figure 1C), listed as UroC, 100 µM",86.1998% of control and 88.2904% of control and 90.5046% of control
same,"MAO-B enzyme assay, Percent of control","human recombinant MAO-B; 100 µM, listed as UroC",82.8808% of control and 77.9531% of control and 81.7949% of control
same,"MAO-B enzyme assay, Percent of control","human recombinant MAO-B; 200 µM, listed as UroC",43.4074% of control and 44.8007% of control and 46.1838% of control
